Measurements from US9289381B2, “Stabilization and storage of biological pharmaceutical compositions” (The University of North Carolina at Charlotte, priority 2009, dated 2016).
Several values for one entry are separate records, joined by “and”; a condition that tells them apart may be missing. Identical values can stand only once. Like-named read-outs stand apart in the source and are kept apart here.

Legend:
[1] = system: J774 murine macrophage cell line
[2] = Osmolality by vapor pressure osmometer, osmotic coefficient; format: physicochemical
[3] = Yoshizawa-Fujita 2007; cited from earlier work
[4] = system: B16-F10 melanoma cells
[5] = system: HT-2 cells
[6] = system: J774 murine macrophage cell line; experiment: cells; conditions: Mus musculus, J774, 48 h
[7] = system: mouse splenocytes; conditions: 24 h; for concentration with cytotoxicity (viability diminishes): splenocytes, medium without added buffer
[8] = 350 mg/ml vs 1 mg/ml, aqueous solvent; cited from earlier work
[9] = cited from earlier work
[10] = 100 mM solutions in deionized water
[11] = read-out: Log EC50, μM (Dose Response Model) (converted)

Molecule: [Cl-].[Na+] [Sodium chloride, reference compound]
- EC50 [1]: 63 mM and 62.8 mM
- Log EC50, μM (Dose Response Model) [1]: 4.8 (1) μM
- Osmotic Coef., φ in H2O [2]: 0.91

Molecule: CCCCC(CC)COP(=O)(O)OCC(CC)CCCC.CN(C)CCO (stereo not shown) [CBEH, Choline bis(2,ethyl hexyl) phosphate]
- anion effect ratio (AR) [1]: 113
- shape of dose response [1]: hormetic response
- Log EC50, μM (Dose Response Model) ([1]; J774, 48 h, value is the logarithm of EC50, error of last digit in parentheses, equation 1): 2.47 (3) μM
- Log EC50, μM (Logistic Model) ([1]; J774, 48 h, value is the logarithm of EC50, modified (hormesis) model, equation 2, error of last digit in parentheses): 2.43 (3) μM
- EC50 ([1]; J774, 48 h exposure): 0.3 mM
- osmotic coefficient (φ) ([2]; 100 mM in water, 1 indicates 100% dissociation): 0.3
- Osmotic Coef., φ in H2O [2, 10]: 0.31

Molecule: C[N+](C)(C)CCO.O=P([O-])(O)O [CDHP, choline dihydrogen phosphate]
- shape of dose response [1]: hormetic response
- anion effect ratio (AR) ([1]; mouse, pH 7.53): 1.7
- thermal stability by thermal gravimetric analysis [3]: up to 200 °C
- concentration range with no cytotoxic activity detected ([4]; buffered medium ([…] (w/v) sodium bicarbonate), 24 h): 0 to 8e+07 nM
- concentration not cytotoxic ([4]; final culture medium concentration): 1000 to 30000 µM
- cytotoxic activity ([4]; up to 80 mM C-DHP, DMEM F12 complete medium, 24 h, not buffered): doesn't demonstrate any significant cytotoxic activity
- cytotoxic effect toward HT-2 lymphocytes [5]: no immediate cytotoxic effect
- concentration range not cytotoxic ([5]; mouse): 0 to 3e+07 nM
- EC50 [6]: 20000 µM
- EC50 [6, 11]: 20400 µM
- EC50 ([6]; read-out: Log EC50, μM (Logistic Model) (converted)): 19100 µM
- concentration range with no cytotoxic activity detected ([7]; buffered medium ([…] (w/v) sodium bicarbonate)): 0 to 8e+07 nM
- concentration with cytotoxicity (viability diminishes) [7]: > 35000 µM and > 40000 µM
- concentration with cytotoxicity (viability diminishes) ([7]; listed as Choline-DHP): > 30000 µM

Molecule: Choline dibutyl phosphate [CDBP]
- EC50 [1]: 9.1 mM
- Log EC50, μM (Dose Response Model) [1]: 3.96 (3) μM
- anion effect ratio (AR) [1]: 3.7
- Osmotic Coef., φ in H2O [2]: 0.90
- osmotic coefficient (φ) [2]: 0.9

Molecule: hemoglobin
- increase of transition temperature at the higher concentration [8]: 8 °C

Molecule: C[N+](C)(C)CCO.[Cl-] [Choline chloride, reference compound]
- EC50 [1]: 33.7 mM
- EC50 [6]: 34000 µM
- EC50 [6, 11]: 33900 µM
- Osmotic Coef., φ in H2O [2]: 0.86

Molecule: cyt C: cytochrome c, protein of earlier literature studies in 80% w/w CDHP
- thermal transition midpoint temperature before shift ([9]; Fujita 2006, 2007): 80 C.°
- concentration dissolved ([9]; in 80% w/w CDHP (Fujita 2005, 2006)): 37000 µg/mL
- thermal transition midpoint temperature after shift ([9]; stabilized in CDHP, Fujita 2006, 2007): 120 C.°

Molecule: fibrinogen
- increase of transition temperature at the higher concentration [8]: 3 °C

Molecule: OC[C@H]1O[C@H](O[C@H]2O[C@H](CO)[C@@H](O)[C@H](O)[C@H]2O)[C@H](O)[C@@H](O)[C@@H]1O [Trehalose, reference compound]
- EC50 [6]: > 100000 µM
- Osmotic Coef., φ in H2O [2, 10]: 1.01
